Laboratory results as given in patent US20080153850A1, “Adamantyl Derivates as P2x7 Receptor Antagonists” (AstraZeneca AB, priority 2004, published 2008).
Where a name gives a salt, the structure may show the parent alone.

For `O=C(NCC12CC3CC(CC(C3)C1)C2)c1cc(-c2nccnc2C(=O)O)ccc1Cl` (as salt: sodium) [Example 6, 3-[4-Chloro-3-[[(tricyclo[3.3.1.1^3,7]dec-1-ylmethyl)amino]carbonyl]phenyl]-2-pyrazinecarboxylic acid, monosodium salt], the melting point was 194 to 195 °C (dec.).

With `O=C(O)Cc1ncccc1-c1ccc(Cl)c(C(=O)NCC23CC4CC(CC(C4)C2)C3)c1` (as salt: sodium) [Example 58, 3-[4-Chloro-3-[[(tricyclo[3.3.1.1^3,7]dec-1-ylmethyl)amino]carbonyl]phenyl]-2-pyridineacetic acid, monosodium salt] the melting point was 186 to 187 °C (dec.).

Molecule `O=C(O)c1cccc(-c2ccc(Cl)c(C(=O)NCC34CC5CC(CC(C5)C3)C4)c2)c1` [Example 2, 4′-Chloro-3′-[[(tricyclo[3.3.1.1^3,7]dec-1-ylmethyl)amino]carbonyl]-[1,1′-biphenyl]-3-carboxylic acid] has a melting point of 255 to 257 °C.

`O=C(NCC12CC3CC(CC(C3)C1)C2)c1cc(-c2ccccc2C(=O)O)ccc1Cl` [Example 3, 4′-Chloro-3′-[[(tricyclo[3.3.1.1^3,7]dec-1-ylmethyl)amino]carbonyl]-[1,1′-biphenyl]-2-carboxylic acid] showed a melting point of 228 to 230 °C.

In the case of `N#CNc1cncc(-c2ccc(Cl)c(C(=O)NCC34CC5CC(CC(C5)C3)C4)c2)n1` [Example 4, 2-Chloro-5-[6-(cyanoamino)pyrazinyl]-N-(tricyclo[3.3.1.1^3,7]dec-1-ylmethyl)-benzamide], the melting point is reported as 215 to 220 °C (dec.).

In the case of `N#CNc1nccnc1-c1ccc(Cl)c(C(=O)NCC23CC4CC(CC(C4)C2)C3)c1` [Example 5, 2-Chloro-5-[3-(cyanamino)pyrazinyl]-N-(tricyclo[3.3.1.1^3,7]dec-1-ylmethyl)-benzamide], the melting point is reported as 110 to 115 °C (dec.).

Molecule `O=C(O)c1cccc(-c2cc(C(=O)NCC34CC5CC(CC(C5)C3)C4)c(Cl)cn2)c1` [Example 7, 3-[5-Chloro-4-[[(tricyclo [3.3.1.1^3,7]dec-1-ylmethyl)amino]carbonyl]-2-pyridinyl]-benzoic acid] has a melting point of 200 to 202 °C.

With `CS(=O)(=O)Nc1nccnc1-c1ccc(Cl)c(C(=O)NCC23CC4CC(CC(C4)C2)C3)c1` [Example 8, 2-Chloro-5-[3-[(methylsulfonyl)amino)pyrazinyl]-N-(tricyclo[3.3.1.1^3,7]dec-1-ylmethyl)-benzamide] the melting point was 245 °C (dec.).

For `O=C(NCC12CC3CC(CC(C3)C1)C2)c1cc(-c2nccnc2-c2nnn[nH]2)ccc1Cl` [Example 9, 2-Chloro-5-[3(1-H-tetrazol-5-yl)pyrazinyl]-N-(tricyclo[3.3.1.1^3,7]dec-1-ylmethyl)-benzamide], the melting point was 254 °C (dec.).

With `O=C(NCC12CC3CC(CC(C3)C1)C2)c1cc(-c2ncccc2C(=O)O)ccc1Cl` [Example 10, 2-[4-Chloro-3-[[(tricyclo[3.3.1.1^3,7]dec-1-ylmethyl)amino]carbonyl]phenyl]-3-pyridinecarboxylic acid] the melting point was 169 to 172 °C.

With `O=C(O)c1ccnc(-c2ccc(Cl)c(C(=O)NCC34CC5CC(CC(C5)C3)C4)c2)c1` [Example 12, 2-[4-Chloro-3-[[(tricyclo[3.3.1.1^3,7]dec-1-ylmethyl)amino]carbonyl]phenyl]-4-pyridinecarboxylic acid] the melting point was 284 to 287 °C.

Work on `Cc1ccc(C(=O)O)c(-c2ccc(Cl)c(C(=O)NCC34CC5CC(CC(C5)C3)C4)c2)n1` [Example 13, 2-[4-Chloro-3-[[(tricyclo[3.3.1.1^3,7]dec-1-ylmethyl)amino]carbonyl]phenyl]-6-methyl-3-pyridinecarboxylic acid] yielded a melting point of 209 to 211 °C.

In the case of `C[C@H](Oc1ccccc1-c1ccc(Cl)c(C(=O)NCC23CC4CC(CC(C4)C2)C3)c1)C(=O)O` [Example 14, (2S)-2-[[4′-chloro-3′-[[(tricyclo[3.3.1.1^3,7]dec-1-ylmethyl)amino]carbonyl][1,1′-biphenyl]-2-yl]oxy]-propanoic acid], the melting point is reported as 107 to 110 °C.

Work on `O=C(O)COc1ccccc1-c1ccc(Cl)c(C(=O)NCC23CC4CC(CC(C4)C2)C3)c1` [Example 15, [[4′-Chloro-3′-[[(tricyclo[3.3.1.1^3,7]dec-1-ylmethyl)amino]carbonyl][1,1′-biphenyl]-2-yl]oxy]-acetic acid] yielded a melting point of 208 to 210 °C.

`O=C(O)CCOc1ccccc1-c1ccc(Cl)c(C(=O)NCC23CC4CC(CC(C4)C2)C3)c1` [Example 16, 3-[[4′-Chloro-3′-[[(tricyclo[3.3.1.1^3,7]dec-1-ylmethyl)amino]carbonyl][1,1′-biphenyl]-2-yl]oxy]-propanoic acid] showed a melting point of 163 to 164 °C.

For `O=C(NCC12CC3CC(CC(C3)C1)C2)c1cc(-c2ncc(Cl)cc2C(=O)O)ccc1Cl` [Example 17, 5-Chloro-2-[4-chloro-3-[[(tricyclo[3.3.1.1^3,7]dec-1-ylmethyl)amino]carbonyl]phenyl]-3-pyridinecarboxylic acid], the melting point was 165 to 168 °C.

Work on `Cc1cccc(C(=O)O)c1-c1ccc(Cl)c(C(=O)NCC23CC4CC(CC(C4)C2)C3)c1` [Example 18, 4′-Chloro-6-methyl-3′-[[(tricyclo[3.3.1.1^3,7]dec-1-ylmethyl)amino]carbonyl]-[1,1′-biphenyl]-2-carboxylic acid] yielded a melting point of 151 to 154 °C.

`O=C(NCC12CC3CC(CC(C3)C1)C2)c1cc(-c2ccsc2C(=O)O)ccc1Cl` [Example 19, 3-[4-Chloro-3-[[(tricyclo[3.3.1.1^3,7]dec-1-ylmethyl)amino]carbonyl]phenyl]-2-thiophenecarboxylic acid] gave a melting point of 140 to 143 °C.

`O=C(O)c1cccc(-c2ccc(Cl)c(C(=O)NCC34CC5CC(CC(C5)C3)C4)c2)n1` [Example 20, 6-[4-Chloro-3-[[(tricyclo[3.3.1.1^3,7]dec-1-ylmethyl)amino]carbonyl]phenyl]-2-pyridinecarboxylic acid] gave a melting point of 170 to 173 °C.

For `O=C(O)c1coc(-c2ccc(Cl)c(C(=O)NCC34CC5CC(CC(C5)C3)C4)c2)n1` [Example 23, 2-[4-Chloro-3-[[(tricyclo[3.3.1.1^3,7]dec-1-ylmethyl)amino]carbonyl]phenyl]-4-oxazolecarboxylic acid], the melting point was 254 to 257 °C.

With `Cc1ccc(-c2ccc(Cl)c(C(=O)NCC34CC5CC(CC(C5)C3)C4)c2)c(C(=O)O)c1` [Example 24, 4′-Chloro-4-methyl-3′-[[(tricyclo[3.3.1.1^3,7]dec-1-ylmethyl)amino]carbonyl]-[1,1′-biphenyl]-2-carboxylic acid] the melting point was 214 to 216 °C.

Work on `CS(=O)(=O)NC(=O)c1cccc(-c2ccc(Cl)c(C(=O)NCC34CC5CC(CC(C5)C3)C4)c2)n1` [Example 25, 6-[4-Chloro-3-[[(tricyclo[3.3.1.1^3,7]dec-1-ylmethyl)amino]carbonyl]phenyl]-N-(methylsulfonyl)-2-pyridinecarboxamide] yielded a melting point of 160 to 162 °C.

Work on `O=C(O)CNc1ncccc1-c1ccc(Cl)c(C(=O)NCC23CC4CC(CC(C4)C2)C3)c1` [Example 26, N-[3-[4-Chloro-3-[[(tricyclo[3.3.1.1^3,7]dec-1-ylmethyl)amino]carbonyl]phenyl]-2-pyridinyl]-glycine] yielded a melting point of 160 to 164 °C.

With `CS(=O)(=O)Nc1cccc(-c2ccc(Cl)c(C(=O)NCC34CC5CC(CC(C5)C3)C4)c2)n1` [Example 27, 2-Chloro-5-[6-[(methylsulfonyl)amino]-2-pyridinyl]-N-(tricyclo[3.3.1.1^3,7]dec-1-ylmethyl)-benzamide] the melting point was 115 to 120 °C.

With `O=C(O)COc1ncccc1-c1ccc(Cl)c(C(=O)NCC23CC4CC(CC(C4)C2)C3)c1` [Example 28, [[3-[4-Chloro-3-[[(tricyclo[3.3.1.1^3,7]dec-1-ylmethyl)amino]carbonyl]phenyl]-2-pyridinyl]oxy]-acetic acid] the melting point was 226 to 229 °C.

With `O=C(NCC12CC3CC(CC(C3)C1)C2)c1cc(-c2ncccc2OCc2nnn[nH]2)ccc1Cl` [Example 29, 2-Chloro-5-[3-(1H-tetrazol-5-ylmethoxy)-2-pyridinyl]-N-(tricyclo[3.3.1.1^3,7]dec-1-ylmethyl)-benzamide] the melting point was 122 to 126 °C.

In the case of `COc1ccc(-c2ccc(Cl)c(C(=O)NCC34CC5CC(CC(C5)C3)C4)c2)c(C(=O)O)c1` [Example 30, 4′-Chloro-4-methoxy-3′-[[(tricyclo[3.3.1.1^3,7]dec-1-ylmethyl)amino]carbonyl]-[1,1′-biphenyl]-2-carboxylic acid], the melting point is reported as 219 to 221 °C.

With `Cn1cc(-c2ccc(Cl)c(C(=O)NCC34CC5CC(CC(C5)C3)C4)c2)c(C(=O)O)n1` [Example 31, 4-[4-Chloro-3-[[(tricyclo[3.3.1.1^3,7]dec-1-ylmethyl)amino]carbonyl]phenyl]-1-methyl-1H-pyrazole-3-carboxylic acid] the melting point was 166 to 175 °C (dec.).

For `Cn1ncc(-c2ccc(Cl)c(C(=O)NCC34CC5CC(CC(C5)C3)C4)c2)c1C(=O)O` [Example 32, 4-[4-Chloro-3-[[(tricyclo[3.3.1.1^3,7]dec-1-ylmethyl)amino]carbonyl]phenyl]-1-methyl-1H-pyrazole-5-carboxylic acid], the melting point was 187 to 190 °C (dec.).

For `CN(CC(=O)O)c1nccnc1-c1ccc(Cl)c(C(=O)NCC23CC4CC(CC(C4)C2)C3)c1` [Example 33, N-[3-[4-Chloro-3-[[(tricyclo[3.3.1.1^3,7]dec-1-ylmethyl)amino]carbonyl]phenyl]pyrazinyl]-N-methyl-glycine], the melting point was 151 to 153 °C (dec.).

In the case of `O=C(NCC12CC3CC(CC(C3)C1)C2)c1cc(-c2nccnc2N2CCC(C(=O)O)CC2)ccc1Cl` [Example 34, 1-[3-[4-Chloro-3-[[(tricyclo[3.3.1.1^3,7]dec-1-ylmethyl)amino]carbonyl]phenyl]pyrazinyl]-4-piperidinecarboxylic acid], the melting point is reported as 136 to 140 °C.

`O=C(NCC12CC3CC(CC(C3)C1)C2)c1cc(-c2c(F)cccc2C(=O)O)ccc1Cl` [Example 35, 4′-Chloro-6-fluoro-3′-[[(tricyclo[3.3.1.1^3,7]dec-1-ylmethyl)amino]carbonyl]-[1,1′-biphenyl]-2-carboxylic acid] gave a melting point of 108 to 113 °C.

With `O=C(NCC12CC3CC(CC(C3)C1)C2)c1cc(-c2cc(F)ccc2C(=O)O)ccc1Cl` [Example 36, 4′-Chloro-5-fluoro-3′-[[(tricyclo[3.3.1.1^3,7]dec-1-ylmethyl)amino]carbonyl]-[1,1′-biphenyl]-2-carboxylic acid] the melting point was 120 to 124 °C.
